Tests used:
Format in all cases: cell-based
[1] = tested on: Respiratory syncytial virus recombinant with luciferase (RSV-Luc5); assay: NHBE RSV-Luc5 384-well assay (EC50 RSVFLUC NHBE-384 v2), Example W; conditions: human respiratory syncytial virus, 72 h, read-out: EC50 RSV FLUC NHBE 384 V2 (per Ex. W)
Description: Example W: NHBE RSV-Luc5 384-Well Assay (EC50 RSVFLUC NHBE-384 v2)
Normal Human Bronchial Epithelial (NHBE) cells were purchased from Lonza (Walkersville, MD Cat #CC2540) and maintained in BEGM Bronchial Epithelial Cell Growth Medium BulletKit (Lonza CC-3170).
Cells were thawed, expanded, and were used for experiments at passage 2. Respiratory syncytial virus recombinant with luciferase (RSV-Luc5) (≥1×10^7 Infectious Units/mL (IU/mL) determined by TCID50) was purchased from Microbiologics (Saint Cloud, MN). Viral replication was determined in NHBE cells in the following manner.
(§1) Compounds are prepared in 100% DMSO in 384-well polypropylene plates (Greiner, Monroe, NC, Cat #784201) with 8 compounds per plate in grouped replicates of 4 at 10 serially diluted concentrations (1:3). The serially diluted compounds were transferred to low dead volume Echo plates (Labcyte, Sunnyvale, CA, Cat #LP-0200).
The test compounds were spotted to 384-well assay plates (Greiner, Monroe, NC, Cat #781091) at 200 nL per well using an Echo acoustic dispenser (Labcyte, Sunnyvale, CA). NHBE cells were harvested and suspended in BEGM Bronchial Epithelial Cell Growth Medium BulletKit and seeded to the pre-spotted assay plates at 5,000 cells per well in 30 μL. RSV-Luc5 virus was diluted in BEGM Bronchial Epithelial Cell Growth Medium BulletKit at 500,000 Infectious Units (IU) per mL and 10 μL per well was added to the assay plates containing cells and compounds, for an MOI of 1. The assay plates were incubated for 3 days at 37° C. and 5% CO2. At the end of incubation, One-Glo reagent (Promega, Madison, WI, Cat #E6120) was prepared. The assay plates and One-Glo reagent were equilibrated to room temperature for at least 15 minutes. 40 μL per well of One-Glo reagent was added and the plates were incubated at room temperature for 15 minutes before reading the luminescence signal on an EnVision multimode plate reader (Perkin Elmer, Waltham, MA). Remdesivir was used as positive control and DMSO was used as negative control. Values were normalized to the positive and negative controls (as 0% and 100% replication, respectively) and data was fitted using non-linear regression analysis by Gilead's dose response tool. The EC50 value for each compound was defined as the concentration reducing the viral replication by 50%.

[2] = tested on: Respiratory syncytial virus recombinant with luciferase (RSV-Luc5); assay: HEp-2 RSV-Luc5 384-well assay (EC50 RSVFLUC Hep2-384 v2), Example V; conditions: human respiratory syncytial virus, HEp-2, 72 h, read-out: EC50 RSV FLuc Hep-2 384 V2 (per Ex. V)
Description: Example V: HEp-2 RSV-Luc5 384-Well Assay (EC50 RSVFLUC Hep2-384 v2)
HEp-2 cell line was purchased from ATCC (Manassas, VA Cat #CCL-23) and maintained in Dulbecco's […] (DMEM) (Corning, New York, NY, Cat #15-018CM) supplemented with 10% fetal bovine serum (FBS) (Hyclone, Logan, UT, Cat #SH30071-03) and 1× Penicillin-Streptomycin-L-Glutamine (Corning, New York, NY, Cat #30-009-C1). Cells were passaged 2 times per week to maintain sub-confluent densities and were used for experiments at passage 5-20. Respiratory syncytial virus recombinant with luciferase (RSV-Luc5) (≥1×107 TCID50/ml) was purchased from Microbiologics (Saint Cloud, MN). Viral replication was determined in HEp-2 cells in the following manner.
as §1
The test compounds were spotted to 384-well assay plates (Greiner, Monroe, NC, Cat #781091) at 200 nL per well. HEp-2 cells were harvested and suspended in DMEM (supplemented with 10% FBS and 1× Penicillin-Streptomycin-L-Glutamine) and seeded to the pre-spotted assay plates at 4,000 cells per well in 30 μL. RSV-Luc5 viruses were diluted in DMEM (supplemented with 10% FBS and 1× Penicillin-Streptomycin-L-(Glutamine) at 200,000 Infectious Units (IU) per mL and 10 μL per well was added to the assay plates containing cells and compounds, for an MOI=0.5. The assay plates were incubated for 3 days at 37° C. and 5% CO2. At the end of incubation, One-Glo reagent (Promega, Madison, WI, Cat #E6120) was prepared. The assay plates and One-Glo reagent were equilibrated to room temperature for at least 15 minutes. 40 μL per well of One-Glo reagent was added and the plates were incubated at room temp for 15 minutes before reading the luminescence signal on an EnVision multimode plate reader (Perkin Elmer, Waltham, MA). Remdesivir was used as positive control and DMSO was used as negative control. Values were normalized to the positive and negative controls (as 0% and 100% replication, respectively) and data was fitted using non-linear regression analysis by Gilead's dose response tool. The EC50 value for each compound was then determined as the concentration reducing the viral replication by 50%.

[3] = tested on: Human Rhinovirus 14 (HRV14); assay: H1-HeLa HRV-CTG 384-well assay, HRV14, Example X; conditions: Rhinovirus B, 96 h; H1-HeLa cells, HRV14 MOI 1.0, 4 days, Celltiter-Glo; read-out: EC50 H1-HeLa_HRV 14_HRV-CTG 384-well Assay (per Ex. X)
Description: (§2) Example X: H1-HeLa HRV-CTG 384-Well Assay
(§3) H1-Hela cell line (ATCC, Manassas, VA, Cat #CRL-1958) was maintained in Dulbecco's […] (DMEM) (Corning, New York, NY, Cat #15-018CM) supplemented with 10% fetal bovine serum (FBS) (Hyclone, Logan, UT, Cat #SH30071-03), and 1× Penicillin-Streptomycin-L-Glutamine (Corning, New York, NY, Cat #30-009-CI). Cells were passaged 2 times per week to maintain sub-confluent densities and were used for experiments at passage 5-30. The Human Rhinovirus 1B (HRV1B) (ATCC, Manassas, VA, Cat #VR-1645), Human Rhinovirus 14 (HRV14) (ATCC, Manassas, VA, Cat #VR-284), and Human Rhinovirus 16 (HRV16) (ATCC, Manassas, VA, Cat #BR-283) was obtained through ATCC. Viral infection was monitored by determining viability of H1-HeLa cells as described below.
as §1, with “Test molecules” for “Compounds”
(§4) The test compounds were spotted to 384-well assay plates (Greiner, Monroe, NC, Cat #781091) at 200 nL per well using an Echo acoustic dispenser (Labcyte, Sunnyvale, CA). H1-HeLa cells were harvested and suspended in DMEM (supplemented with 2% FBS and 1× Penicillin-Streptomycin-L-Glutamine) and seeded to the pre-spotted assay plates at 5,000 cells per well in 30 μL. HRV1B, HRV14, and HRV16 was diluted in DMEM (supplemented with 2% FBS and 1× Penicillin-Streptomycin-L-Glutamine) at 97.1 million Infectious Units (IU) per mL, 151 million IU per mL and 221 million IU per mL respectively. 10 μL of virus per well was added to the assay plates containing cells and compounds, for an MOI of 0.5, 1.0, and 0.25 respectively. The assay plates were incubated for 4 days at 37° C. and 5% CO2. At the end of incubation, Celltiter-Glo (Promega, Madison, WI, Cat #G7573) was prepared. The assay plates and Celltiter-Glo reagent were equilibrated to room temperature for at least 15 minutes. 40 μL per well of Celltiter-Glo reagent was added and the plates were incubated at room temperature for 15 minutes before reading the luminescence signal on an EnVision multimode plate reader (Perkin Elmer, Waltham, MA). Rupintrivir was used as positive control and DMSO was used as negative control. Values were normalized to the positive and negative controls (as 0% and 100% replication, respectively) and data was fitted using non-linear regression analysis by Gilead's dose response tool. The EC50 value for each compound was defined as the concentration reducing viral replication by 50%.

[4] = tested on: Human Rhinovirus 16 (HRV16); assay: H1-HeLa HRV-CTG 384-well assay, HRV16, Example X; conditions: Rhinovirus A, 96 h; H1-HeLa cells, HRV16 MOI 0.25, 4 days, Celltiter-Glo; read-out: EC50 H1-HeLa_HRV 16_HRV-CTG 384-well Assay (per Ex. X)
Description: as §2, §3
as §1, with “Test molecules” for “Compounds”
as §4

[5] = tested on: Human Rhinovirus 1B (HRV1B); assay: H1-HeLa HRV-CTG 384-well assay, HRV1B, Example X; conditions: Rhinovirus A, 96 h; H1-HeLa cells, HRV1B MOI 0.5, 4 days, Celltiter-Glo; read-out: EC50 H1-HeLa_HRV 1B_HRV-CTG 384-well Assay (per Ex. X)
Description: as §2, §3
as §1, with “Test molecules” for “Compounds”
as §4

SMILES | EC50 [1] | EC50 [2] | EC50 [3] | EC50 [4] | EC50 [5]
CO[C@@H]1O[C@H]2[C@H](c3ccc4c(N)ncnn34)O[C@](C#N)(COC(=O)OCC(C)C)[C@H]2O1 (single isomer, unassigned) [Compound 25] | 50 µM | 50 µM | 50 µM | 50 µM | 50 µM
CO[C@H]1O[C@H]2[C@H](c3ccc4c(N)ncnn34)O[C@](C#N)(COC(=O)OCC(C)C)[C@H]2O1 (single isomer, unassigned) [Compound 26] | 50 µM | 50 µM | 50 µM | 50 µM | 50 µM
CC1(OC(=O)OC[C@@]2(C#N)O[C@@H](c3ccc4c(N)ncnn34)[C@H](O)[C@@H]2O)CC1 [Compound 3, ((2R,3S,4R,5S)-5-(4-aminopyrrolo[2,1-f][1,2,4]triazin-7-yl)-2-cyano-3,4-dihydroxytetrahydrofuran-2-yl)methyl (1-methylcyclopropyl) carbonate] | 7.93 µM | 20.9 µM | 24.4 µM | 34.5 µM | 16 µM
N#C[C@]1(COC(=O)OC2CCCCCCC2)O[C@@H](c2ccc3c(N)ncnn23)[C@H](O)[C@@H]1O [Compound 18, ((2R,3S,4R,5S)-5-(4-aminopyrrolo[2,1-f][1,2,4]triazin-7-yl)-2-cyano-3,4-dihydroxytetrahydrofuran-2-yl)methyl cyclooctyl carbonate] | 5.77 µM | – | – | – | –
CC(C)(OC(=O)OC[C@@]1(C#N)O[C@@H](c2ccc3c(N)ncnn23)[C@H](O)[C@@H]1O)C(F)F [Compound 27, ((2R,3S,4R,5S)-5-(4-aminopyrrolo[2,1-f][1,2,4]triazin-7-yl)-2-cyano-3,4-dihydroxytetrahydrofuran-2-yl)methyl (1,1-difluoro-2-methylpropan-2-yl) carbonate] | 8.03 µM | – | – | – | –
CC(C)OC(=O)Nc1ncnn2c([C@@H]3O[C@](C#N)(COC(=O)OC(C)C)[C@@H](OC(=O)OC(C)C)[C@H]3OC(=O)OC(C)C)ccc12 [Compound 42, Isopropyl (7-((2S,3S,4S,5R)-5-cyano-3,4-bis((isopropoxycarbonyl)oxy)-5-(((isopropoxycarbonyl)oxy)methyl)tetrahydrofuran-2-yl)pyrrolo[2,1-f][1,2,4]triazin-4-yl)carbamate] | 26.1 µM | – | – | – | –
CC(C)OC(=O)OC[C@@]1(C#N)O[C@@H](c2ccc3c(N)ncnn23)[C@H](OC(=O)OC(C)C)[C@@H]1OC(=O)OC(C)C [Compound 43, (2R,3S,4S,5S)-5-(4-aminopyrrolo[2,1-f][1,2,4]triazin-7-yl)-2-cyano-2-(((isopropoxycarbonyl)oxy)methyl)tetrahydrofuran-3,4-diyl diisopropyl bis(carbonate)] | 6.99 µM | – | – | – | –
COC(=O)Nc1ncnn2c([C@@H]3O[C@](C#N)(COC(=O)OC)[C@@H](OC(=O)OC)[C@H]3OC(=O)OC)ccc12 [Compound 44, Methyl (7-((2S,3S,4S,5R)-5-cyano-3,4-bis((methoxycarbonyl)oxy)-5-(((methoxycarbonyl)oxy)methyl)tetrahydrofuran-2-yl)pyrrolo[2,1-f][1,2,4]triazin-4-yl)carbamate] | 15.8 µM | – | – | – | –
COC(=O)OC[C@@]1(C#N)O[C@@H](c2ccc3c(N)ncnn23)[C@H](OC(=O)OC)[C@@H]1OC(=O)OC [Compound 45, (2R,3S,4S,5S)-5-(4-aminopyrrolo[2,1-f][1,2,4]triazin-7-yl)-2-cyano-2-(((methoxycarbonyl)oxy)methyl)tetrahydrofuran-3,4-diyl dimethyl bis(carbonate)] | 29.4 µM | – | – | – | –
